In patent publication EP1724268A1, “COMPOUND HAVING TGF-BETA INHIBITORY ACTIVITY AND PHARMACEUTICAL COMPOSITION CONTAINING SAME” (KIRIN BEER KABUSHIKI KAISHA, priority 2004, dated 2005):
Where two headings read alike, the source gives them in different places.

Test system: TGFβ signal
Test: TGFβ signal inhibitory activity, (SBE)4-Luc reporter in A549 cells (Test Examples 1A and 1B)
Format: cell-based, human
Conditions: Homo sapiens, A549, read-out: TGFβ inhibition rate, %
Outline: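 Compounds at 3 µM and 10 µM (some 1 µM) were added with 2 ng/ml TGFβ-1 to A549 cells stably expressing an SBE-driven luciferase, then cultured 4 hr. Chemiluminescent luciferase signal gave % inhibition versus TGFβ-alone and no-TGFβ controls.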

[1] = test compound 3 µM, Reference Examples, Table 1B
[2] = test compound 10 µM, Reference Examples, Table 1B
[3] = 3 µM, compounds of Reference Examples (Test Example 1B)
[4] = 10 µM, compounds of Reference Examples (Test Example 1B)

In the case of `COc1cc2c(Oc3ccc(C)cc3C(=O)c3ccccc3)ccnc2cc1OCCCCN1CCC(N2CCCCC2)CC1` [Compound r146], the inhibition at 3 µM [1] was 64% and the inhibition at 10 µM [2] was 100%.

`COc1cc2c(Oc3ccc(C)cc3C(=O)c3ccccc3)ccnc2cc1OCCCCN1CCNCC1` [Compound r147] was tested, and the inhibition at 3 µM [1] was 98% and the inhibition at 10 µM [2] was 100%.

`COc1cc2c(Oc3ccc(C)cc3C(=O)c3ccccc3)ccnc2cc1OCCCCN1CCN(C)CC1` [Compound r148] showed an inhibition at 3 µM [1] of 99% and an inhibition at 10 µM [2] of 100%.

In the case of `COc1cc2c(Oc3ccc(C)cc3C(=O)c3ccccc3)ccnc2cc1OCCCCN1CCOCC1` [Compound r149], the inhibition at 3 µM [1] was 96% and the inhibition at 10 µM [2] was 100%.

Compound `COc1cc2c(Oc3ccc(C)cc3C(=O)c3ccccc3)ccnc2cc1OCCCCn1ccnc1` [Compound r150] has an inhibition at 3 µM [1] of 97% and an inhibition at 10 µM [2] of 100%.

`COc1cc2c(Oc3ccc(C)cc3C(=O)c3ccccc3)ccnc2cc1OCC1CO1` (centres unmarked) [Compound r151] gave an inhibition at 3 µM [1] of 95% and an inhibition at 10 µM [2] of 100%.

`COc1cc2c(Oc3ccc(C)cc3C(=O)c3ccccc3)ccnc2cc1OCC(O)CNCCO` (centres unmarked) [Compound r152] was tested, and the inhibition at 3 µM [1] was 99% and the inhibition at 10 µM [2] was 100%.

Compound `COc1cc2c(Oc3ccc(C)cc3C(=O)c3ccccc3)ccnc2cc1OCC(O)CN1CCC(N2CCCCC2)CC1` (centres unmarked) [Compound r156] has an inhibition at 3 µM [1] of 99% and an inhibition at 10 µM [2] of 100%.

Compound `COc1cc2c(Oc3ccc(C)cc3C(=O)c3ccccc3)ccnc2cc1OCC(O)CN1CCNCC1` (centres unmarked) [Compound r157] has an inhibition at 3 µM [1] of 100% and an inhibition at 10 µM [2] of 100%.

Compound `COc1cc2c(Oc3ccc(C)cc3C(=O)c3ccccc3)ccnc2cc1OCC(O)CN1CCN(C)CC1` (centres unmarked) [Compound r158] has an inhibition at 3 µM [1] of 100% and an inhibition at 10 µM [2] of 100%.

`COc1cc2c(Oc3ccc(C)cc3C(=O)c3ccccc3)ccnc2cc1OCC(O)CN1CCOCC1` (centres unmarked) [Compound r159] was tested, and the inhibition at 3 µM [1] was 98% and the inhibition at 10 µM [2] was 100%.

With `CCOC(=O)c1ccccc1C(=O)c1ccnc2cc(OC)c(OC)cc12` [Compound r163, Ethyl 2-[(6,7-dimethoxy-4-quinolyl)carbonyl]benzoate] the inhibition at 3 µM [1] was 3% and the inhibition at 10 µM [2] was 67%.

`COc1cc2nccc(Oc3cc(C)c(C)cc3I)c2cc1OC` [Compound r164, 4-(2-Iodo-4,5-dimethyl-phenoxy)-6,7-dimethoxy-quinoline] was tested, and the inhibition at 3 µM [3] was 54% and the inhibition at 10 µM [4] was 98%.

Compound `COc1cc2nccc(Oc3cc(C)c(C)cc3-c3ccccn3)c2cc1OC` [Compound r169] has an inhibition at 3 µM [3] of 99% and an inhibition at 10 µM [4] of 100%.

`COc1cc2nccc(Oc3ccc(OCc4ccccc4)cc3C(C)=O)c2cc1OC` [Compound r175, 1-[5-Benzyloxy-2-(6,7-dimethoxy-quinotin-4-yloxy)-phenyl]-ethanone] was tested, and the inhibition at 3 µM [3] was 13% and the inhibition at 10 µM [4] was 60%.

With `CCOc1ccc(Oc2ccnc3cc(OC)c(OC)cc23)c(C(C)=O)c1` [Compound r178, 1-[2-(6,7-Dimethoxy-quinolin-4-yloxy)-5-ethoxy-phenyl]-ethanone] the inhibition at 3 µM [3] was 66% and the inhibition at 10 µM [4] was 97%.

`CCCOc1ccc(Oc2ccnc3cc(OC)c(OC)cc23)c(C(C)=O)c1` [Compound r179] showed an inhibition at 3 µM [3] of 18% and an inhibition at 10 µM [4] of 68%.

Compound `COc1cc2nccc(Oc3cc(Cl)c(C)cc3C(C)=O)c2cc1OC` [Compound r184] has an inhibition at 3 µM [3] of 100% and an inhibition at 10 µM [4] of 100%.

Work on `COc1cc2nccc(Oc3cc(C(C)(C)C)c(OC)cc3C(C)=O)c2cc1OC` [Compound r185] yielded an inhibition at 3 µM [3] of 11% and an inhibition at 10 µM [4] of 59%.

`COc1cc2nccc(Oc3cc(C)c(SC)cc3C(C)=O)c2cc1OC` [Compound r186] gave an inhibition at 3 µM [3] of 76% and an inhibition at 10 µM [4] of 100%.

`COc1cc2nccc(Oc3ccc(C)cc3C(=O)c3ccc(OCCCl)cc3)c2cc1OC` [Compound r189] was tested, and the inhibition at 3 µM [3] was 86% and the inhibition at 10 µM [4] was 100%.

Work on `COc1cc2nccc(Oc3ccc(C)cc3C(=O)c3ccc(OCCN4CCCCC4)cc3)c2cc1OC` [Compound r190] yielded an inhibition at 3 µM [3] of 30% and an inhibition at 10 µM [4] of 86%.
